Measured values published in US7112584B2, “Nonsteroidal antiinflammatory agents” (Schering AG, priority 2002, dated 2006).

Experiments:
[1] = tested on: croton oil-induced inflammation; assay: croton oil-induced ear inflammation, edema formation in mice; format: in vivo; settings: systemic, two hours before croton oil, ear weight
Description: The antiinflammatory actions of the compounds of general formula I were tested in the animal experiment by tests in the croton oil-induced inflammation in rats and mice (J. Exp. Med. (1995), 182, 99–108). In this connection, croton oil in ethanolic solution was administered topically to the animals' ears. The test substances were also administered topically or systemically simultaneously with or two hours before the croton oil. After 16–24 hours, the ear weight was measured as a yardstick of the inflammatory edema, the peroxidase activity was measured as a yardstick of the invasions of granuloctyes, and the elastase activity was measured as a yardstick of the invasion of neutrophilic granuloctyes.
The antiinflammatory action of the compounds of general formula I were tested in an animal experiment in croton oil-induced inflammation in mice and in rats (J. Exp. Med. (1995), 182, 99–108). In this connection, croton oil in ethanolic solution was administered topically to the animals' ears. The test substances were systemically administered for two hours before the croton oil. After 16–24 hours, the ear weight was measured as a yardstick for the inflammatory edema.

[2] = tested on: secretion of cytokine IL-8 in human monocyte cell line THP-1; assay: inhibition of LPS-triggered IL-8 secretion in THP-1 cells (ELISA); format: cell-based; set-up: Inhibition of IL-8 Secretion Efficacy: concentration or dose not given beside the values; settings: THP-1, LPS-triggered; for IC50: Homo sapiens
Description: The concentration of the cytokines was determined in the supernatant with use of commercially available ELISA kits.
The potency of the inflammation inhibition is determined by the inhibition of the secretion of cytokine IL-8 in a cellular test. […] The concentration of the cytokine was determined in the supernatant by commercially available ELISA kits. In this connection, the compounds of formula I show a high to very high potency and action (>50%) in the inhibition (see Table 4). The potency of the racemates is considerably lower than that of the pure enantiomers.

[3] = molecular target: T1, GR (collagenase promoter) (Homo sapiens, UniProt P04150); assay: reporter gene test in HeLa cells, transrepression, collagenase promoter-luciferase; format: cell-based; settings: TPA-induced; for IC50: read-out: Transrepression (TR)(Collagenase Promoter) IC50
T1 construct: endogenous in cells; host or cells: HeLa cells stably transfected with promoter-luciferase reporters (MMTV, IL-6 or collagenase promoter)
T1 sequence (P04150 1-777): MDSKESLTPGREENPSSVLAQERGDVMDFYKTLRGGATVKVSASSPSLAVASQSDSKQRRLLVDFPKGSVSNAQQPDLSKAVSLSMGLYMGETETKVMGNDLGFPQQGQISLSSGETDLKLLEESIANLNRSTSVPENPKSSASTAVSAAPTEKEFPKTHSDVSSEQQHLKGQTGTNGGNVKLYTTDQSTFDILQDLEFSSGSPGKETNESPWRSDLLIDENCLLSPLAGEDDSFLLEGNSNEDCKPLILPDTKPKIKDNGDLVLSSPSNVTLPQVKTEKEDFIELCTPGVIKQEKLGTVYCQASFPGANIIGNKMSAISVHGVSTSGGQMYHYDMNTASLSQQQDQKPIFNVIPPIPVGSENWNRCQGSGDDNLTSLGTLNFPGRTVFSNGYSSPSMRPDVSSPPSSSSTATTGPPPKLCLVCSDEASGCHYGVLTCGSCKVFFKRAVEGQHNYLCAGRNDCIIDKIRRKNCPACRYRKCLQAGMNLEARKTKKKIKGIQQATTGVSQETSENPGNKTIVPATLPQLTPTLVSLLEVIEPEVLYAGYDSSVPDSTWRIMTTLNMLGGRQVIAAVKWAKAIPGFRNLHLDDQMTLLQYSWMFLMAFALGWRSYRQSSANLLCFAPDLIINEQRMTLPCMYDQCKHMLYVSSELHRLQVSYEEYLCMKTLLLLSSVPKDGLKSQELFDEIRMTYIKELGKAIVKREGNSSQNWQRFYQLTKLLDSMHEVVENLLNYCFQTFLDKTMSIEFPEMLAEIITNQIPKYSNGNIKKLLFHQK

[4] = tested on: tyrosinamino transferase (TAT); assay: induction of tyrosinamino transferase (TAT) in liver homogenates; format: in vivo; settings: mice, 8 hours after administration, vs untreated control
Excerpt: One of the most frequent undesirable effects of a glucocorticoid therapy is the so-called “steroid diabetes” [cf. Hatz, H. J., Glucocorticoide: Immunologische Grundlagen, Pharmakologie und Therapierichtlinien [Glucocorticoids: Immunological Bases, Pharmacology and Therapy Guidelines], Wissenschaftliche Verlagsgesellschaft mbH, Stuttgart, 1998]. The reason for this is the stimulation of the gluconeogenesis in the liver by induction of the enzymes that are responsible for this effect and by free amino acids, which develop from the degradation of proteins (catabolic action of glucocorticoids). A key enzyme of the catabolic metabolism in the liver is the tyrosinamino transferase (TAT). The activity of this enzyme can be determined photometrically from liver homogenates and represents a good yardstick of the undesirable metabolic actions of the glucocorticoids. To measure the TAT induction, the animals are sacrificed 8 hours after the test substances are administered, the livers are removed, and the TAT activity in the homogenate is measured.
As parameters for the side effects of the catabolic metabolism induced by steroids, the activity of the enzyme tyrosinamino transferase (TAT) was determined by photometry from liver homogenates. The activity represents a good yardstick for the undesirable catabolic actions of the glucocorticoids. To measure the TAT induction, the animals (mice and rats) are killed 8 hours after the test substance is administered, the liver is removed, and the TAT activity is measured in the homogenates.

[5] = molecular target: T2, GR (IL-6 promoter) (Homo sapiens, UniProt P04150); assay: reporter gene test in HeLa cells, transrepression, IL-6 promoter-luciferase; settings: for Emax: HeLa, read-out: Transrepression (TR)(IL-6-Promoter) Efficacy
T2 sequence (P04150 1-777): T1 sequence (P04150 1-777)
Description: (§1) The MMTV promoter (transactivation) and the IL-6 promoter (transrepression) in each case were upstream to the gene that codes for the luciferase. By means of the photometric determination of the enzyme activity of the luciferase, it was possible to measure the activation of the transcription (MMTV-promoter-construct) or the inhibition of the transcription (IL-6-promoter-construct) by the GR.
(§2) This dissociation of the mechanisms of action was determined with the aid of the reporter gene test in stable transfixed human HeLa cells. To determine the transactivation induced by the GR, the MMTV promoter, which is set before a luciferase gene, is used. Via the photometric determination of the luciferase activity, it was possible to determine the transactivation activities of the GR after binding the test compounds. The inhibition of the transcription of the luciferase gene, induced by tetradecanoyl-phorbol acetate (TPA) under the control of the IL-6 promoter or the collagenase promoter (transpression) by the GR after binding the test substances, was also determined by the measurement of luciferase activity in HeLa cells.

[6] = molecular target: T3, GR (MMTV promoter) (Homo sapiens, UniProt P04150); assay: reporter gene test in HeLa cells, transactivation, MMTV promoter-luciferase; settings: for Transactivating (TA)(MMTV-Promoter) Efficacy: HeLa cells, luciferase; for TA:TR EC50:IC50: MMTV promoter EC50 : IL-6 promoter IC50
T3 sequence (P04150 1-777): T1 sequence (P04150 1-777)
Description: as §1, §2

[7] = molecular target: T4, human GR (Homo sapiens, UniProt P04150); assay: glucocorticoid receptor (GR) binding test, cytosol of Sf9 cells, [3H]-dexamethasone; settings: human GR from Sf9 cytosol
T4 construct: made in house; host or cells: Sf9 cells infected with recombinant baculovirus (cytosol preparation)
T4 sequence (P04150 1-777): T1 sequence (P04150 1-777)
Excerpt: The binding of substances to the glucocorticoid receptor (GR) is examined with the aid of a recombinantly produced receptor. Cytosol preparations of Sf9 cells, which had been infected with recombinant baculoviruses, which code for the GR, are used for the binding studies.

For `Cc1noc(=O)c2ccc(NC(=O)C(O)(CC3(c4cc(F)ccc4O)CCC3)C(F)(F)F)cc12` (single isomer, unassigned) [Example 29], the “Edema Inhibition with 3 mg/kg” value [1] was 34%, the “Edema Inhibition with 30 mg/kg” value [1] was 66% and the IC50 [2] was 31 nM. For the same compound, the “Inhibition of IL-8 Secretion Efficacy” value [2] was 86%, the “Transrepression (TR)(Collagenase Promoter) Efficacy” value [3] was 105% and the IC50 [3] was 3.4 nM. For the same compound, the “Induction Factor for TAT with 3 mg/kg” value [4] was 1.0, the “Induction Factor for TAT with 30 mg/kg” value [4] was 2.0 and the IC50 [5] was 1.5 nM. The Emax [5] was 79%, the EC50 [6] was 13 nM and the “Transactivating (TA)(MMTV-Promoter) Efficacy” value [6] was 59%. For the same compound, the “TA:TR EC50:IC50” value [6] was 8.7 and the IC50 [7] was 0.35 nM.

Work on `Cc1noc(=O)c2ccc(NC(=O)C(O)(CC(C)(C)c3cc(F)cc4c3OCO4)C(F)(F)F)cc12` (racemic) [Example 18] yielded a melting point of 215 to 217 °C, an IC50 [5] of 5.7 nM and an Emax [5] of 63%.

For `Cc1noc(=O)c2ccc(NC(=O)C(O)(CC3(c4cccc5c4OCC5)CC3)C(F)(F)F)cc12` (single isomer, unassigned) [Example 13], the IC50 [2] was 37 nM, the “Inhibition of IL-8 Secretion Efficacy” value [2] was 68% and the melting point was 249 to 255 °C. The IC50 [7] was less than 0.3 nM.

In the case of `Cc1noc(=O)c2ccc(NC(=O)C(O)(CC(C)(C)c3cccc4c3OCO4)C(F)(F)F)cc12` (single isomer, unassigned; (+)) [Example 2, (+)-6-[4-(Benzo[1,3]dioxol-4-yl)-2-hydroxy-4-methyl-2-trifluoromethyl-valeroyl-amino]-4-methyl-2,3-benzoxazin-1-one], the “Edema Inhibition with 3 mg/kg” value [1] is reported as 55%, the “Edema Inhibition with 30 mg/kg” value [1] is reported as 86% and the IC50 [2] is reported as 29 nM. The “Inhibition of IL-8 Secretion Efficacy” value [2] was 57%, the “Transrepression (TR)(Collagenase Promoter) Efficacy” value [3] was 92% and the IC50 [3] was 3.7 nM. The “Induction Factor for TAT with 3 mg/kg” value [4] was 1.4, the “Induction Factor for TAT with 30 mg/kg” value [4] was 2.4 and the IC50 [5] was 0.92 nM. For the same compound, the Emax [5] was 66%, the EC50 [6] was 11 nM and the “Transactivating (TA)(MMTV-Promoter) Efficacy” value [6] was 71%. The “TA:TR EC50:IC50” value [6] was 11.9 and the IC50 [7] was less than 0.3 nM.

For `Cc1noc(=O)c2ccc(NC(=O)C(O)(CC3(c4cc(F)ccc4O)CCC3)C(F)(F)F)cc12` (racemic) [Example 28], the IC50 [2] was 860 nM, the “Inhibition of IL-8 Secretion Efficacy” value [2] was 100% and the melting point was 138 °C. It also gave an IC50 [7] of 2 nM.
